Each structure is given as a SMILES string.

Assay [1] concerns the target T1, HDAC3 (Homo sapiens, UniProt O15379).
T1 construct: purchased Reaction Biology Corp. (contract testing)
Kind of assay: Biochemical HDAC3 activity, fluorogenic p53 peptide (Reaction Biology). The settings on record: fluorogenic p53 peptide RHKK(Ac)AMC. An excerpt: ^2 Biochemical HDAC3 IC50 value, determined using a fluorogenic p53 peptide, detailed results depicted in Supplementary Figure 1 a.

Assay [2] has as its target T2, HDAC10 (Homo sapiens, UniProt Q969S8).
T2 construct: host or cells: HeLa cells, stably transfected
T2 sequence (Q969S8 1-669): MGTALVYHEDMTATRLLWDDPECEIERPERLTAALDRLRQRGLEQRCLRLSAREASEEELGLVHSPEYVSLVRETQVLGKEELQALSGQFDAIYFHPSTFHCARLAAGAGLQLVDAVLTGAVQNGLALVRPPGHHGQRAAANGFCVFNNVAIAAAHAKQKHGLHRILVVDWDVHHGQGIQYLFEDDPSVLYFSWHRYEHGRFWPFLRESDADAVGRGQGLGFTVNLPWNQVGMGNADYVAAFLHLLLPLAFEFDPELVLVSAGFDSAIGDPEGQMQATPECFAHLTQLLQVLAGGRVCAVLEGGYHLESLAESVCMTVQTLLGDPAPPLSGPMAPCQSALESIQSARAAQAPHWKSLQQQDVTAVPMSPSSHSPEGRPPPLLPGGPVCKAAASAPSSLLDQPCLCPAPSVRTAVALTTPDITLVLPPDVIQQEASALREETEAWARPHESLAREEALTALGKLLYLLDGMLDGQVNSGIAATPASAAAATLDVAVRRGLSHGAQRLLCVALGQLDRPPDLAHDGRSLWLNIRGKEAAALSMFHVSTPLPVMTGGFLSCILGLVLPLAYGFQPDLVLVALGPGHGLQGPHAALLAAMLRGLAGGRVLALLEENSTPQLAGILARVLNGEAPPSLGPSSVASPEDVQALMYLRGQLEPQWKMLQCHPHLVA
Kind of assay: NanoBRET cellular target engagement assay. The assay is classed as binding. The settings on record: HeLa cells. On the procedure:
HeLa cells, stably transfected with NanoBRET plasmids NanoLuc®-HDAC6 FL Fusion Vector and NanoLuc®-HDAC10 FL Fusion Vector (Promega, Madison, WI, USA) were seeded at 20,000 cells/well in white 96-well plates. Without further incubation, tracer (0.3 µM) and drugs were added in separate steps and plates were placed in a tissue culture incubator for 2 h. For NanoBRET quantification, plates were put at room temperature for 10 min. Nanoglow substrate, diluted in OptiMEM without phenol red, was added and measured within 10 min in an OPTIMA plate reader (460 nm emission for donor and 610LP filter for acceptor, BMG Labtech, Ortenberg, Germany). The BRET signal was calculated by the ratio of acceptor signal to donor signal.

T1 sequence (O15379 whole entry): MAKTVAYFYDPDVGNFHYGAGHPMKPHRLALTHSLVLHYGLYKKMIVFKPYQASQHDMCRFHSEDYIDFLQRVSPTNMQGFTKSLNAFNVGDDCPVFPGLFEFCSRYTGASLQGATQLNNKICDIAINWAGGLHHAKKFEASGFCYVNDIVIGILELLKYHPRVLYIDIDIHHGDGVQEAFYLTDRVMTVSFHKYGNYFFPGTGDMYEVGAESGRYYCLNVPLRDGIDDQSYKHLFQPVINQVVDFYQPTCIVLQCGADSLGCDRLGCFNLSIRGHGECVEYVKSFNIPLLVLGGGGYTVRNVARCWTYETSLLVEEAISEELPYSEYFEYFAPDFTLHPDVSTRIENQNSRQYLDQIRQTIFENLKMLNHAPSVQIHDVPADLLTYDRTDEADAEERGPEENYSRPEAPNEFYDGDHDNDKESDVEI
T1 sequence (Q9Y618 395-489 partner limits assumed): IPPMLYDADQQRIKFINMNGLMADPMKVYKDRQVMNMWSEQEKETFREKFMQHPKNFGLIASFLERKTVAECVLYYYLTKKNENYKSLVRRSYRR

As to `Cc1ccc(C(=O)NO)cc1NCc1ccccc1` [TH34, 3-(N-benzylamino)-4-methylbenzhydroxamic acid], the 50% inhibitory concentration (IC50) in assay [1] was 78.3 ± 0.9 µM; in assay [2], 7.7 µM.

Broadly, the IC50 is the concentration that inhibits the measured activity by half. Low readings indicate greater potency, high ones weaker potency.

Source of the values: paper PMC6063332 (Archives of Toxicology, 2018).
